Source: ChEMBL document CHEMBL1150330, “Muscarinic antagonists with multiple stereocenters: Synthesis, affinity profile and functional activity of isomeric 1-methyl-2-(2,2-alkylaryl-1,3-oxathiolan-5-yl)pyrrolidine sulfoxide derivatives” (Bioorg Med Chem, 2008)

How the values were obtained:
[1] = molecular target: Muscarinic acetylcholine receptor M3 (Homo sapiens, UniProt P20309); assay: Displacement of [3H]NMS from human muscarinic M3 receptor expressed in CHO cells; assay type: cell-based
[2] = molecular target: T1, Muscarinic acetylcholine receptor M4 (Homo sapiens, UniProt P08173); assay: Displacement of [3H]NMS from human muscarinic M4 receptor expressed in CHO cells; assay type: cell-based
T1 sequence (P08173 whole entry): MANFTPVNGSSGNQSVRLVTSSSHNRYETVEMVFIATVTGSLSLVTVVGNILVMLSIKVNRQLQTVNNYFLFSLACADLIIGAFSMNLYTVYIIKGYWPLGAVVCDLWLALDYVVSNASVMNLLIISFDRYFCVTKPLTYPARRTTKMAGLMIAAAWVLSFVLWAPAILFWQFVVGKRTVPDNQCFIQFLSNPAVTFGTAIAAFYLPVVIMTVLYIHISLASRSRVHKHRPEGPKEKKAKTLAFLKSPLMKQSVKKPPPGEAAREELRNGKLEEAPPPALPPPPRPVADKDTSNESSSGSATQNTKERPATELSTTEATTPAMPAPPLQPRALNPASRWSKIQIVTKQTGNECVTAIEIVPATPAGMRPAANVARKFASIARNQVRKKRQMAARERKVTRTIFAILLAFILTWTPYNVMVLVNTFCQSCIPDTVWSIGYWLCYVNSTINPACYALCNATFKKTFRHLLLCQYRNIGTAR

[3] = Antagonist activity against muscarinic M4 receptor in guinea pig lung strip assessed as effect on electrically-stimulated contraction; assay type: functional, Cavia porcellus
[4] = molecular target: T2, Muscarinic acetylcholine receptor M2 (Homo sapiens, UniProt P08172); assay: Displacement of [3H]NMS from human muscarinic M2 receptor expressed in CHO cells; assay type: cell-based
T2 sequence (P08172 whole entry): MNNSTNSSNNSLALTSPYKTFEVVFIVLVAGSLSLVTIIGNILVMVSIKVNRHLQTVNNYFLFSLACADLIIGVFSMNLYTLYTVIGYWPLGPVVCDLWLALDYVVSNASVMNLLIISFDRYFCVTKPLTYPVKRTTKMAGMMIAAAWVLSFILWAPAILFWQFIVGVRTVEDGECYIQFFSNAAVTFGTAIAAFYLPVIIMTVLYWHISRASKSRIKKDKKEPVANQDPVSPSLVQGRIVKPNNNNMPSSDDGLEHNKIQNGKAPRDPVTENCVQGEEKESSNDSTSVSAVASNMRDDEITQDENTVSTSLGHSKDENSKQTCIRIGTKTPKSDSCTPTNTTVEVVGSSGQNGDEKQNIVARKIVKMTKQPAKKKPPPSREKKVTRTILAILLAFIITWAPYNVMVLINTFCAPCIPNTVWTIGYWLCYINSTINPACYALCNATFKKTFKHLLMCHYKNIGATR

[5] = molecular target: T3, Muscarinic acetylcholine receptor M1 (Homo sapiens, UniProt P11229); assay: Displacement of [3H]NMS from human muscarinic M1 receptor expressed in CHO cells; assay type: cell-based
T3 sequence (P11229 whole entry): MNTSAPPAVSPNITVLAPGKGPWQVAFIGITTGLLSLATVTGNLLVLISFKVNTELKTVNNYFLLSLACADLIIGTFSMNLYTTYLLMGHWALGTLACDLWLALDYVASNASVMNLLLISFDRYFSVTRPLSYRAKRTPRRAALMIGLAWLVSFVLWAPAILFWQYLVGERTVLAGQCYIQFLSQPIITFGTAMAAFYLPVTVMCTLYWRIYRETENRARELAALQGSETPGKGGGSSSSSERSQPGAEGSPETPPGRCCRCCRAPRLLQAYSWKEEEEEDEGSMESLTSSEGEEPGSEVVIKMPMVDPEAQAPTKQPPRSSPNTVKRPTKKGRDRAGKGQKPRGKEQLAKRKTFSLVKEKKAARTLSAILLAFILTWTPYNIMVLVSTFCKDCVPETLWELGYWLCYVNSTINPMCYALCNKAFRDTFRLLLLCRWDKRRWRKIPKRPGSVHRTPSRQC

[6] = Antagonist activity against muscarinic M3 receptor in guinea pig ileum assessed as effect on ileum tension; assay type: functional, Cavia porcellus
[7] = molecular target: T4, Muscarinic acetylcholine receptor M5 (Homo sapiens, UniProt P08912); assay: Displacement of [3H]NMS from human muscarinic M5 receptor expressed in CHO cells; assay type: cell-based
T4 sequence (P08912 whole entry): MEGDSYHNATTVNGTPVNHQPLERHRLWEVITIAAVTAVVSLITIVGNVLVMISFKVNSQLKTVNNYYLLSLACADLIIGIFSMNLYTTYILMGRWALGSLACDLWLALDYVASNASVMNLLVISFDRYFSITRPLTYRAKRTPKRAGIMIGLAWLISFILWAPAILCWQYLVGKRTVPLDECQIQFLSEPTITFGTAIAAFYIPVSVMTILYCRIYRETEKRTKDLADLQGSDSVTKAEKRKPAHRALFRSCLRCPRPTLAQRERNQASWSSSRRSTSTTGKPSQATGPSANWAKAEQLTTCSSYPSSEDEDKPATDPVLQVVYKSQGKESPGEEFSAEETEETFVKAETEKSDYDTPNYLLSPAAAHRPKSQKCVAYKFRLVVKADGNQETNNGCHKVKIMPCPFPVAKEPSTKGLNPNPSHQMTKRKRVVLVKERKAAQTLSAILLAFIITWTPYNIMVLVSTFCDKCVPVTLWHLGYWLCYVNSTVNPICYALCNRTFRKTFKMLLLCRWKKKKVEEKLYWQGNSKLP

[8] = Antagonist activity against muscarinic M2 receptor in guinea pig atria assessed as effect on electrically-stimulated atria; assay type: functional, Cavia porcellus

Sequence of Muscarinic acetylcholine receptor M3 (P20309 whole entry): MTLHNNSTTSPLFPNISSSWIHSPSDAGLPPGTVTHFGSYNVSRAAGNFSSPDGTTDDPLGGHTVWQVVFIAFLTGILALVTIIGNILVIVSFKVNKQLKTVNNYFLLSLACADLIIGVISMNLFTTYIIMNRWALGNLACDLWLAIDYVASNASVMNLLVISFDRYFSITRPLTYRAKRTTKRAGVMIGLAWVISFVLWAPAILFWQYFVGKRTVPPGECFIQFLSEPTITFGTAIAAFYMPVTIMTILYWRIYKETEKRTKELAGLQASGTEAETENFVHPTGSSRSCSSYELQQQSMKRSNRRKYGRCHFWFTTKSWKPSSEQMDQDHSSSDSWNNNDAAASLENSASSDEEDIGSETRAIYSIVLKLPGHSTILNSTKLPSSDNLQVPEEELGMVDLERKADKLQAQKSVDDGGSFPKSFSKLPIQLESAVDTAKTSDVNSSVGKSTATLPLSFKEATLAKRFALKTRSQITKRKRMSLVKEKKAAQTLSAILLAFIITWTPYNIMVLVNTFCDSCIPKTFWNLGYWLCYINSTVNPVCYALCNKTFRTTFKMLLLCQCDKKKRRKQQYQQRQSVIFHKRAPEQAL

Row | SMILES | Ki [1] [nM] | Ki [2] [nM] | Ki [4] [nM] | Ki [5] [nM] | Ki [7] [nM] | pKb [3] | pKb [6] | pKb [8]
1 | C[N+]1(C)CCC[C@@H]1[C@@H]1C[S+]([O-])[C@](c2ccccc2)(C2CCCCC2)O1.[I-] (stereo in doubt; (-)-13) | 324 | 468 | 95.5 | 117 | 302 | 6.06 | 7.22 | 7.51
2 | CN1CCC[C@@H]1[C@@H]1C[S+]([O-])C(c2ccccc2)(c2ccccc2)O1 (stereo in doubt; (-)-4) | 513 | 513 | 229 | 74.1 | 355 | 5.75 | 6.95 | 7.27
3 | C[N+]1(C)CCC[C@@H]1[C@@H]1C[S+]([O-])C(c2ccccc2)(c2ccccc2)O1.[I-] (stereo in doubt; (+)-11) | 417 | 1170 | 195 | 324 | 813 | 5.25 | 7.62 | 7

Stronger by Ki [1], values ahead:

Row | Ki [1] [nM] | Ki [2] [nM] | Ki [4] [nM] | Ki [5] [nM] | Ki [7] [nM] | SMILES | pKb [3] | pKb [6] | pKb [8]
4 | 26.9 | 58.9 | 70.8 | 12 | 23.4 | C[N+]1(C)CCC[C@H]1[C@H]1C[S+]([O-])[C@@](c2ccccc2)(C2CCCCC2)O1.[I-] (stereo in doubt; (+)-12) | 5.41 | 7.03 | 6.57
5 | 195 | 355 | 107 | 79.4 | 275 | CN1CCC[C@@H]1[C@@H]1C[S+]([O-])[C@](c2ccccc2)(C2CCCCC2)O1 (stereo in doubt; (-)-6) | 7.24 | 7.39 | 7.34
